For orientation: pIC50 means −log10 of the IC50, conventionally taken in molar units.

For 26 molecules, IC50 results are on record in patent publication US20240101570A1 (AMGEN INC., priority 2020, published 2024).

pIC50: −log10 of the molar value. Bounds are passed on as bounds.

One assay deals with HCT116 MTAP null cells. Nature of the assay: HCT116 MTAP null cell proliferation / viability (CellTiter-Glo, 6 days). Format: cell-based. The note with it: HCT116-MTAP null, 144 h, HCT116 MTAP null cells, 6 days, CellTiter-Glo; read-out: HCT-116 MTAP null IC50. The method, boiled down:
(§1)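 CellTiter-Glo luminescence, 6-day exposure, RPMI 1640 + 10% FBS. Dosing: 1:3 series (8-9 pts, top 1 or 10 μM) or 1:2 series (22 pts, top 10 or 50 μM), DMSO control. IC50 = 50% of control via curve fit.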
A general note: ATP-based viability assays read luminescence as a measure of living cells.

Another assay concerns HCT116 WT cells. Nature of the assay: HCT116 WT cell proliferation / viability (CellTiter-Glo, 6 days). As to conditions: Homo sapiens, HCT-116, 144 h, HCT116 WT cells, 6 days, CellTiter-Glo; read-out: HCT-116 WT IC50. Format: cell-based. The method, boiled down:
as §1

For the molecule `C[C@H]1OCc2c1c(N)nc1ccc(C(=O)N(Cc3ccc(C#N)cn3)CC3CC3)cc21` [Example 331, (3R)-4-amino-N-((5-cyano-2-pyridinyl)methyl)-N-(cyclopropylmethyl)-3-methyl-1,3-dihydrofuro[3,4-c]quinoline-8-carboxamide], the pIC50 is 7.55 in the assay on HCT116 MTAP null cells and 5.64 in the assay on HCT116 WT cells.

For `CC(C)N(Cc1ccc(Br)nn1)C(=O)c1ccc2nc(N)c3c(c2c1)CO[C@@H]3C` [Example 332, (3R)-4-amino-N-((6-bromo-3-pyridazinyl)methyl)-3-methyl-N-(2-propanyl)-1,3-dihydrofuro[3,4-c]quinoline-8-carboxamide], the pIC50 in the assay on HCT116 MTAP null cells is 6.92; with HCT116 WT cells, 5.22.

For the molecule `C[C@H]1OCc2c1c(N)nc1ccc(C(=O)N(Cc3ccc(C(F)(F)F)nn3)CC3CC3)cc21` [Example 333, (3R)-4-amino-N-(cyclopropylmethyl)-3-methyl-N-((6-(trifluoromethyl)-3-pyridazinyl)methyl)-1,3-dihydrofuro[3,4-c]quinoline-8-carboxamide], the figures for the negative-log IC50 (pIC50) in the assay with HCT116 MTAP null cells and with HCT116 WT cells were 7.62 and 5.85, respectively.

In the case of `C[C@H]1OCc2c1c(N)nc1ccc(C(=O)N(Cc3ccc(C(F)(F)F)cn3)CC3CC3)cc21` [Example 334, (3R)-4-amino-N-(cyclopropylmethyl)-3-methyl-N-((5-(trifluoromethyl)-2-pyridinyl)methyl)-1,3-dihydrofuro[3,4-c]quinoline-8-carboxamide], the negative-log IC50 (pIC50) is 8.00 with HCT116 MTAP null cells and 6.29 in the assay with HCT116 WT cells.

For `Nc1nc2ccc(C(=O)N(Cc3ccc(C(F)(F)F)nn3)CC3CC3)cc2c2c1COC2` [Example 336, 4-amino-N-(cyclopropylmethyl)-N-((6-(trifluoromethyl)-3-pyridazinyl)methyl)-1,3-dihydrofuro[3,4-c]quinoline-8-carboxamide], the negative-log IC50 (pIC50) is 7.06 in the assay with HCT116 MTAP null cells and 5.59 with HCT116 WT cells.

As for `CC1(CN(Cc2ccc(C(F)(F)F)cn2)C(=O)c2ccc3nc(N)c4c(c3c2)COC4)CC1` [Example 337, 4-amino-N-((1-methylcyclopropyl)methyl)-N-((5-(trifluoromethyl)-2-pyridinyl)methyl)-1,3-dihydrofuro[3,4-c]quinoline-8-carboxamide], the pIC50 with HCT116 MTAP null cells was 7.48; in the assay on HCT116 WT cells it was 6.15.

For the molecule `C[C@H]1OCc2c1c(N)nc1ccc(C(=O)N(Cc3ccc(C(F)(F)F)cn3)CC(C)(C)C)cc21` [Example 338, (3R)-4-amino-N-(2,2-dimethylpropyl)-3-methyl-N-((5-(trifluoromethyl)-2-pyridinyl)methyl)-1,3-dihydrofuro[3,4-c]quinoline-8-carboxamide], the negative-log IC50 (pIC50) in the assay with HCT116 MTAP null cells is 6.39; with HCT116 WT cells, 5.23.

`C[C@H]1OCc2c1c(N)nc1ccc(C(=O)N(Cc3ccc(C(F)(F)F)cn3)CC3(C)CC3)cc21` [Example 339, (3R)-4-amino-3-methyl-N-((1-methylcyclopropyl)methyl)-N-((5-(trifluoromethyl)-2-pyridinyl)methyl)-1,3-dihydrofuro[3,4-c]quinoline-8-carboxamide]: the negative logarithm of the IC50 (pIC50) in the assay on HCT116 MTAP null cells is 7.60; in the assay with HCT116 WT cells it was 6.21.

Regarding `CC(C)(C)CN(Cc1ccc(C(F)(F)F)cn1)C(=O)c1ccc2nc(N)c3c(c2c1)COC3(C)C` [Example 340, 4-amino-N-(2,2-dimethylpropyl)-3,3-dimethyl-N-((5-(trifluoromethyl)-2-pyridinyl)methyl)-1,3-dihydrofuro[3,4-c]quinoline-8-carboxamide], the pIC50 with HCT116 MTAP null cells was 5.53; in the assay with HCT116 WT cells, less than 5.00.

For the molecule `CC1(CN(Cc2ccc(C(F)(F)F)cn2)C(=O)c2ccc3nc(N)c4c(c3c2)COC4(C)C)CC1` [Example 341, 4-amino-3,3-dimethyl-N-((1-methylcyclopropyl)methyl)-N-((5-(trifluoromethyl)-2-pyridinyl)methyl)-1,3-dihydrofuro[3,4-c]quinoline-8-carboxamide], the negative-log IC50 (pIC50) with HCT116 MTAP null cells is 6.67; in the assay on HCT116 WT cells it was 5.42.

With `Nc1nc2ccc(C(=O)N(Cc3ccc(C4CC4)cn3)C3CC3)cc2c2c1COC2` [Example 343, 4-amino-N-cyclopropyl-N-((5-cyclopropyl-2-pyridinyl)methyl)-1,3-dihydrofuro[3,4-c]quinoline-8-carboxamide], the pIC50 in the assay with HCT116 MTAP null cells is 6.57; with HCT116 WT cells, 5.08.

Regarding `CN(Cc1ccc(C(F)(F)F)cn1)C(=O)c1cc2c3c(c(N)nc2cn1)COC3` [Example 344, 4-amino-N-methyl-N-((5-(trifluoromethyl)-2-pyridinyl)methyl)-1,3-dihydrofuro[3,4-c][1,7]naphthyridine-8-carboxamide], the pIC50 with HCT116 MTAP null cells is 6.61; in the assay on HCT116 WT cells, less than 5.00.

`CC(C)N(Cc1ccc(C(F)(F)F)cn1)C(=O)c1cc2c3c(c(N)nc2cc1F)COC3` [Example 345, 4-amino-7-fluoro-N-(2-propanyl)-N-((5-(trifluoromethyl)-2-pyridinyl)methyl)-1,3-dihydrofuro[3,4-c]quinoline-8-carboxamide]: the figures for the pIC50 with HCT116 MTAP null cells and in the assay on HCT116 WT cells were 7.96 and 6.68, respectively.

On to `CC(C)N(Cc1ccc(C#N)cn1)C(=O)c1cc2c3c(c(N)nc2cn1)COC3` [Example 346, 4-amino-N-((5-cyano-2-pyridinyl)methyl)-N-(2-propanyl)-1,3-dihydrofuro[3,4-c][1,7]naphthyridine-8-carboxamide], for which the negative-log IC50 (pIC50) was 5.96 in the assay on HCT116 MTAP null cells and 4.71 in the assay on HCT116 WT cells.

As for `N#Cc1ccc(CN(C(=O)c2cc3c4c(c(N)nc3cn2)COC4)C2CC2)nc1` [Example 347, 4-amino-N-((5-cyano-2-pyridinyl)methyl)-N-cyclopropyl-1,3-dihydrofuro[3,4-c][1,7]naphthyridine-8-carboxamide], the negative logarithm of the IC50 (pIC50) in the assay with HCT116 MTAP null cells is 6.15; with HCT116 WT cells, 4.36.

Turning to `Nc1nc2cnc(C(=O)N(Cc3ccc(C4CC4)cn3)C3CC3)cc2c2c1COC2` [Example 348, 4-amino-N-cyclopropyl-N-((5-cyclopropyl-2-pyridinyl)methyl)-1,3-dihydrofuro[3,4-c][1,7]naphthyridine-8-carboxamide], the pIC50 in the assay on HCT116 MTAP null cells is 6.81; with HCT116 WT cells, 5.04.

As to `CN(Cc1ccc(C2CC2)cn1)C(=O)c1cc2c3c(c(N)nc2cn1)COC3` [Example 349, 4-amino-N-((5-cyclopropyl-2-pyridinyl)methyl)-N-methyl-1,3-dihydrofuro[3,4-c][1,7]naphthyridine-8-carboxamide], the negative logarithm of the IC50 (pIC50) in the assay on HCT116 MTAP null cells is 6.49; in the assay on HCT116 WT cells, 5.04.

As to `CC(C)N(Cc1ccc(C2CC2)nc1)C(=O)c1ccc2nc(N)c3c(c2c1)CO[C@@H]3C` [Example 350, (3R)-4-amino-N-((6-cyclopropyl-3-pyridinyl)methyl)-3-methyl-N-(2-propanyl)-1,3-dihydrofuro[3,4-c]quinoline-8-carboxamide], the pIC50 was 6.48 in the assay with HCT116 MTAP null cells and 4.66 in the assay on HCT116 WT cells.

Consider `C[C@H]1OCc2c1c(N)nc1ccc(C(=O)N(Cc3ccc(C(F)(F)F)cn3)C3CC3)cc21` [Example 351, (3R)-4-amino-N-cyclopropyl-3-methyl-N-((5-(trifluoromethyl)-2-pyridinyl)methyl)-1,3-dihydrofuro[3,4-c]quinoline-8-carboxamide], for which the pIC50 was 7.32 with HCT116 MTAP null cells and 5.45 in the assay on HCT116 WT cells.

On to `CN(Cc1ccc(C(F)(F)F)nn1)C(=O)c1ccc2nc(N)c3c(c2c1)COC3` [Example 352, 4-amino-N-methyl-N-((6-(trifluoromethyl)-3-pyridazinyl)methyl)-1,3-dihydrofuro[3,4-c]quinoline-8-carboxamide], for which the pIC50 in the assay on HCT116 MTAP null cells is 6.06; in the assay on HCT116 WT cells it was less than 5.00.

As to `C[C@H]1OCc2c1c(N)nc1ccc(C(=O)N(Cc3ccc(C(F)(F)F)nn3)C3CC3)cc21` [Example 353, (3R)-4-amino-N-cyclopropyl-3-methyl-N-((6-(trifluoromethyl)-3-pyridazinyl)methyl)-1,3-dihydrofuro[3,4-c]quinoline-8-carboxamide], the results for the negative logarithm of the IC50 (pIC50) in the assay on HCT116 MTAP null cells and with HCT116 WT cells were 6.91 and less than 5.00, respectively.

On to `CC(C)N(Cc1ccc(C#N)cn1)C(=O)c1ccc2nc(N)c3c(c2c1)CO[C@@H]3C` [Example 354, (3R)-4-amino-N-((5-cyano-2-pyridinyl)methyl)-3-methyl-N-(2-propanyl)-1,3-dihydrofuro[3,4-c]quinoline-8-carboxamide], for which the negative logarithm of the IC50 (pIC50) in the assay on HCT116 MTAP null cells is 6.21; in the assay with HCT116 WT cells, 4.67.

With `C[C@H]1OCc2c1c(N)nc1ccc(C(=O)N(Cc3ccc(C#N)cn3)C3CC3)cc21` [Example 355, (3R)-4-amino-N-((5-cyano-2-pyridinyl)methyl)-N-cyclopropyl-3-methyl-1,3-dihydrofuro[3,4-c]quinoline-8-carboxamide], the pIC50 is 6.77 in the assay with HCT116 MTAP null cells and 4.72 in the assay on HCT116 WT cells.

With `C[C@H]1OCc2c1c(N)nc1ccc(C(=O)N(C)Cc3ccc(C4CC4)cn3)cc21` [Example 356, (3R)-4-amino-N-((5-cyclopropyl-2-pyridinyl)methyl)-N,3-dimethyl-1,3-dihydrofuro[3,4-c]quinoline-8-carboxamide], the negative-log IC50 (pIC50) in the assay with HCT116 MTAP null cells is 7.04; with HCT116 WT cells it was 5.27.

As to `Nc1nc2cc(F)c(C(=O)N(Cc3ccc(C(F)(F)F)nn3)C3CC3)cc2c2c1COC2` [Example 357, 4-amino-N-cyclopropyl-7-fluoro-N-((6-(trifluoromethyl)-3-pyridazinyl)methyl)-1,3-dihydrofuro[3,4-c]quinoline-8-carboxamide], the pIC50 in the assay on HCT116 MTAP null cells was 6.94; with HCT116 WT cells, 5.37.

For the molecule `CC(C)N(Cc1ccc(C(F)(F)F)nn1)C(=O)c1cc2c3c(c(N)nc2cc1F)COC3` [Example 358, 4-amino-7-fluoro-N-(2-propanyl)-N-((6-(trifluoromethyl)-3-pyridazinyl)methyl)-1,3-dihydrofuro[3,4-c]quinoline-8-carboxamide], the results for the negative logarithm of the IC50 (pIC50) with HCT116 MTAP null cells and in the assay with HCT116 WT cells were 6.92 and 5.09, respectively.
